# Assay results from the supplement of paper PMC8967900.
# Tests used:
# Assay in all cases: selective drug sensitivity score (sDSS, relative to normal bone marrow) (sDSS (score)); higher = more potent and effective on the cell line relative to normal bone marrow cells
# Conditions in all cases: 72 h
# NALM-6 = tested on: NALM-6
# P30-OHKUBO = tested on: P30-OHKUBO
# TMD5 = tested on: TMD5
# MHH-CALL-4 = tested on: MHH-CALL-4
# COG-LL-319h = tested on: COG-LL-319h
# ALL-PO = tested on: ALL-PO
# KOPN-8 = tested on: KOPN-8
# COG-LL-332h = tested on: COG-LL-332h
# NALL-1 = tested on: NALL-1
# COG-LL-402h = tested on: COG-LL-402h
# DND-41 = tested on: DND-41
# JURKAT = tested on: JURKAT
# KASUMI-2 = tested on: KASUMI-2
# PEER = tested on: PEER
# COG-LL-394h = tested on: COG-LL-394h
# MN-60 = tested on: MN-60
# HAL-01 = tested on: HAL-01
# P12-ICHIKAWA = tested on: P12-ICHIKAWA
# REH = tested on: REH
# HPB-ALL = tested on: HPB-ALL
# 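Note: ALL cell lines in 384-well plates, five doses spanning 10,000-fold, each plate scaled between vehicle and 100 µmol/L benzalkonium chloride controls, sDSS an adapted area-under-curve metric.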
SMILES,selective drug sensitivity score (NALM-6),selective drug sensitivity score (P30-OHKUBO),selective drug sensitivity score (TMD5),selective drug sensitivity score (MHH-CALL-4),selective drug sensitivity score (COG-LL-319h),selective drug sensitivity score (ALL-PO),selective drug sensitivity score (KOPN-8),selective drug sensitivity score (COG-LL-332h),selective drug sensitivity score (NALL-1),selective drug sensitivity score (COG-LL-402h),selective drug sensitivity score (DND-41),selective drug sensitivity score (JURKAT),selective drug sensitivity score (KASUMI-2),selective drug sensitivity score (PEER),selective drug sensitivity score (COG-LL-394h),selective drug sensitivity score (MN-60),selective drug sensitivity score (HAL-01),selective drug sensitivity score (P12-ICHIKAWA),selective drug sensitivity score (REH),selective drug sensitivity score (HPB-ALL)
CNC(=O)[C@@H](NC(=O)[C@H](CC(C)C)[C@H](O)C(=O)NO)C(C)(C)C [Marimastat] (top concentration 10000 nM),-1.28,-0.18,3.72,0.92,-1.28,5.22,7.22,-0.18,4.12,-0.38,0.12,2.42,-0.98,1.42,-0.88,1.02,-1.28,1.22,-1.28,-1.08
C[C@H]1C[C@@H](n2c(Nc3ccc(OC(F)(F)F)cc3)nc3cc(CCC(=O)O)ccc32)CC(C)(C)C1 (top concentration 10000 nM),0.16,-0.14,-0.14,-0.14,-0.14,2.86,0.06,1.36,-0.14,-0.14,-0.14,4.26,-0.14,2.16,-0.14,-0.04,1.16,1.26,0.36,5.56
CC[C@H](CO)Nc1nc(NCc2ccccc2)c2ncn(C(C)C)c2n1 [Seliciclib] (top concentration 10000 nM),-1.04,-0.14,-1.04,0.16,1.66,-1.04,4.26,2.16,-0.74,-1.04,9.26,-0.84,-1.04,-0.24,-1.04,-1.04,-0.34,-0.94,-0.14,-0.64
Cc1ccc(-n2nc(C(C)(C)C)cc2NC(=O)Nc2ccc(OCCN3CCOCC3)c3ccccc23)cc1 [Doramapimod] (top concentration 10000 nM),-0.24,4.26,-0.14,-0.24,1.06,4.16,3.76,4.36,-0.24,2.66,-0.24,1.16,-0.24,1.86,2.16,0.66,-0.24,0.26,5.36,2.76
O=c1ncn2nc(Sc3ccc(F)cc3F)ccc2c1-c1c(Cl)cccc1Cl [Neflamapimod] (top concentration 10000 nM),0.6,2.2,0,0,0,5,4,0.3,2.1,0.1,0.5,1.7,0,2.3,1.3,1,2.5,1,3.1,0.8
COc1cc2c(Nc3ccc(Cl)c(Cl)c3F)ncnc2cc1OC[C@@H]1C[C@@H]2CN(C)C[C@@H]2C1 [Tesevatinib] (top concentration 1000 nM),-0.16,0.94,3.24,2.34,-1.36,2.34,-0.86,-0.86,-0.06,1.64,1.44,-0.16,-1.36,1.84,-0.36,0.24,2.44,-0.46,-1.36,0.64
CCCCNc1ncc(C(=O)NCc2ccc(-n3ccnc3)cc2)c(NC2CCC(O)CC2)n1 (stereo not given) [UNC2881] (top concentration 2500 nM),0,0,0.5,0.5,0,7.2,0.2,0.1,0.6,0,0,0,0,1.5,0,0,0.3,0,0.2,0
CN1C(=O)N[C@H](Cc2c[nH]c3c(Cl)cccc23)C1=O [Necrostatin_2] (top concentration 10000 nM),-0.08,-0.08,-0.08,-0.08,-0.08,-0.08,-0.08,-0.08,-0.08,-0.08,-0.08,-0.08,-0.08,-0.08,-0.08,-0.08,-0.08,-0.08,-0.08,-0.08
O=C(O)CCCCC(CCSCc1ccccc1)SCc1ccccc1 (stereo not given) [Devimistat (CPI-613)] (top concentration 10000 nM),0,0,0,0,1.3,0,0,0,0.1,0,0.6,0,0,0.1,0,0.1,0,0,0,0
COc1cc2c(NC3CCN(C(C)C)CC3)nc(C3CCCCC3)nc2cc1OCCCN1CCCC1 [UNC0638] (top concentration 10000 nM),-3.64,0.86,-4.84,-3.94,8.26,-1.74,-4.44,0.66,-5.14,1.16,3.36,-2.64,-4.34,1.26,0.16,-2.64,-4.64,-2.84,-0.24,-3.44
Nc1nc(Nc2ccc3c(c2)CC[C@@H](N2CCCC2)CC3)nn1-c1cc2c(nn1)-c1ccccc1CCC2 [BGB324] (top concentration 10000 nM),1.92,5.82,-2.98,-2.88,0.22,6.02,0.02,2.22,-2.68,2.32,1.32,1.02,-1.58,4.42,2.82,-2.48,-1.58,0.02,0.92,-2.88
Cc1ccc(-c2cc(C(F)(F)F)nn2-c2ccc(S(N)(=O)=O)cc2)cc1 [Celecoxib] (top concentration 10000 nM),-0.06,-0.06,1.34,-0.06,0.04,2.84,0.74,0.34,-0.06,-0.06,1.24,0.14,7.54,0.94,-0.06,-0.06,0.04,0.24,-0.06,-0.06
CC(=O)O[C@@]12CO[C@@H]1C[C@H](O)[C@@]1(C)C(=O)[C@H](O)C3=C(C)[C@@H](OC(=O)[C@H](O)[C@@H](NC(=O)OC(C)(C)C)c4ccccc4)C[C@@](O)([C@@H](OC(=O)c4ccccc4)[C@H]21)C3(C)C [Docetaxel] (top concentration 1000 nM),14.1,20.4,8.5,8.2,21.2,15.5,23.7,22.2,15.9,15,3.3,17.1,16.4,22.3,8.5,-1,4.9,19.1,21.1,12.5
CN1CC[C@@H](NC(=O)Nc2ccc(C#N)cc2)C[C@@H]1c1nc2ccccc2[nH]1 [Glasdegib] (top concentration 1000 nM),0,0,0.3,0,4.1,0,0,1,0.1,0,2.9,0,11.9,0,0,4.7,0,0,1.6,0.1
O=C1CCC(N2C(=O)c3ccccc3C2=O)C(=O)N1 (stereo not given) [Thalidomide] (top concentration 10000 nM),-0.14,-0.14,-0.14,-0.14,-0.14,-0.14,-0.14,-0.14,-0.14,-0.14,-0.14,-0.14,-0.14,-0.14,-0.14,-0.14,0.36,-0.14,-0.04,-0.14
CCC1(c2ccc(N)cc2)CCC(=O)NC1=O (stereo not given) [Aminoglutethimide] (top concentration 10000 nM),0,0,0,0.5,0,0,0,0,0,0,0,0,0,0,0,0,0,0,0.6,0.4
O=C(O)c1ccc(CN2CCC(CN[C@@H]3C[C@H]3c3ccccc3)CC2)cc1 (top concentration 100000 nM),-0.62,-0.62,-0.62,0.58,-0.62,2.08,-0.62,0.08,-0.32,-0.62,-0.62,-0.62,-0.62,-0.22,-0.62,-0.62,-0.62,-0.62,-0.22,-0.62
CCS(=O)(=O)N1CC(CC#N)(n2cc(-c3ncnc4[nH]ccc34)cn2)C1 [Baricitinib] (top concentration 2500 nM),-1.94,-1.94,-1.94,-1.24,-1.94,-1.94,-1.94,0.16,-1.94,-1.94,3.66,-1.94,-1.94,0.96,-1.94,-1.94,-1.94,-1.94,-1.94,-1.94
